Results as given in patent US10933062B2, “Analgesic therapeutic and method, 1-(3-4(((1 R,3S,5S)-adamantan-1-yl)(phenyl)methyl)propyl)-4-methylpiperazine and salts thereof” (ANAVEX LIFE SCIENCES CORP., priority 2016, dated 2021).
Several values for one entry are separate records, joined by “and”; a condition that tells them apart may be missing. Identical values can stand only once.

Assays:
[1] = tested on: model of peripheral mononeuropathy (Bennett model) in rats; assay: Chronic constriction injury (Bennett model) of peripheral mononeuropathy, paw pressure test; assay type: in vivo
[2] = tested on: patients with nociceptive or neuropathic pain; assay: Patient examples 1-5: oral AV1066, patient-reported pain control; assay type: in vivo, human; conditions: Example 1, bone fracture pain (nociceptive), oral 5 mg/kg/day, days 3, 7, 16, 28
Method: A patient or subject (the terms are used interchangeably) presents with a fractured collar bone arising from a bicycling accident. They are complaining of significant shoulder pain. The patient's pain is classified according to the
International Association for the Study of Pain as nociceptive. They are orally administered AV1066 5 mg/kg/day. They are examined at days 3, 7, 16, and 28. At each visit the patient is assessed for pain control compared with the previous visit.
A patient presents with a second […]. They are complaining of significant pain. The patient's pain is classified according to the International Association for the Study of Pain as nociceptive. They are orally administered the phosphate salt of AV1066 10 mg/kg daily in two doses. They are examined at 12 hours, and daily thereafter for 4 days. At each visit the patient is assessed for pain control compared with the previous visit.
A patient presents with a benign tumor mass compressing their left shoulder causing movement pain. The patient's pain is classified according to the International Association for the Study of Pain as nociceptive. They are orally administered the sodium salt of AV1066 30 mg/kg/day in two doses. They are examined daily thereafter at 3, 7, and 28 days. At each visit the patient is assessed for pain control compared with the previous visit. […]

[3] = tested on: model of TNBS-induced chronic colonic hypersensitivity in rats; assay: TNBS-induced chronic colonic hypersensitivity, colorectal balloon distension threshold; conditions: for % antihypersensitivity activity / Colonic distension threshold (mmHg): TNBS 50 mg/kg
[4] = tested on: model of peripheral mononeuropathy (Bennett model) in rats; conditions: typical values given for comparison; cited from earlier work
[5] = injured paw, TO (pre-drug), 10 mg/kg p.o.
[6] = injured paw, TO (pre-drug), 30 mg/kg p.o.
[7] = injured paw, TO (pre-drug), 100 mg/kg p.o.
[8] = injured paw, TO + 30 min, 10 mg/kg p.o.
[9] = injured paw, TO + 30 min, 30 mg/kg p.o.
[10] = injured paw, TO + 30 min, 100 mg/kg p.o.
[11] = injured paw, TO + 60 min, 10 mg/kg p.o.
[12] = injured paw, TO + 60 min, 30 mg/kg p.o.
[13] = injured paw, TO + 60 min, 100 mg/kg p.o.
[14] = injured paw, TO + 120 min, 10 mg/kg p.o.
[15] = injured paw, TO + 120 min, 30 mg/kg p.o.
[16] = injured paw, TO + 120 min, 100 mg/kg p.o.
[17] = injured paw, TO + 180 min, 10 mg/kg p.o.
[18] = injured paw, TO + 180 min, 30 mg/kg p.o.
[19] = injured paw, TO + 180 min, 100 mg/kg p.o.
[20] = single administration 10, 30, 100 mg/kg PO
[21] = injured paw, TO (pre-drug), 3 mg/kg s.c.
[22] = injured paw, TO + 30 min, 3 mg/kg s.c.
[23] = injured paw, TO + 60 min, 3 mg/kg s.c.
[24] = injured paw, TO + 120 min, 3 mg/kg s.c.
[25] = injured paw, TO + 180 min, 3 mg/kg s.c.

CN1CCN(CCCc2ccc(C(c3ccccc3)C34CC5CC(CC(C5)C3)C4)cc2)CC1 [AV1066, 1-(3-4(((1R,3S,5S)-adamantan-1-yl)(phenyl)methyl)propyl)-4-methylpiperazine]
difference in the nociceptive threshold vs. vehicle ([1]; 30 mg/kg dose, T=+30 minutes): 116 g
anti-hyperalgesic effect ([1]; 30 mg/kg dose, T=+30 minutes, vs vehicle): 59%
untoward effects ([1]; CCI study, 10, 30, 100 mg/kg PO): No untoward effects
Nociceptive threshold ([1]; control paw, TO, 10 mg/kg p.o.): 366 ± 11.9 g
Nociceptive threshold ([1]; control paw, TO, 30 mg/kg p.o.): 352 ± 15.8 g
Nociceptive threshold ([1]; control paw, TO, 100 mg/kg p.o.): 354 ± 9.9 g
% variation vs control paw [1, 5]: −54%
% variation vs vehicle-treated group [1, 5]: −15%
Nociceptive threshold [1, 5]: 170 ± 11.6 g
% variation vs control paw [1, 6]: −45%
% variation vs vehicle-treated group [1, 6]: −4%
Nociceptive threshold [1, 6]: 192 ± 8.5 g
% variation vs control paw [1, 7]: −49%
% variation vs vehicle-treated group [1, 7]: −9%
Nociceptive threshold [1, 7]: 182 ± 9.6 g
% variation vs control paw [1, 8]: −32%
% variation vs pre-drug threshold [1, 8]: 38%
% variation vs vehicle-treated group [1, 8]: 19%
Nociceptive threshold [1, 8]: 234 ± 11.2 g
% variation vs control paw [1, 9]: −19%
% variation vs pre-drug threshold [1, 9]: 63%
% variation vs vehicle-treated group [1, 9]: 59%
Nociceptive threshold ([1]; injured paw, TO + 30 min, 30 mg/kg p.o., 30 mg/kg): 312 g and 312 ± 15.5 g
% variation vs control paw [1, 10]: −20%
% variation vs pre-drug threshold [1, 10]: 64%
% variation vs vehicle-treated group [1, 10]: 52%
Nociceptive threshold [1, 10]: 298 ± 21.4 g
% variation vs control paw [1, 11]: −29%
% variation vs pre-drug threshold [1, 11]: 39%
% variation vs vehicle-treated group [1, 11]: 6%
Nociceptive threshold [1, 11]: 236 ± 11.5 g
% variation vs control paw [1, 12]: −16%
% variation vs pre-drug threshold [1, 12]: 43%
% variation vs vehicle-treated group [1, 12]: 23%
Nociceptive threshold [1, 12]: 274 ± 14.3 g
% variation vs control paw [1, 13]: −11%
% variation vs pre-drug threshold [1, 13]: 60%
% variation vs vehicle-treated group [1, 13]: 32%
Nociceptive threshold [1, 13]: 292 ± 17.2 g
% variation vs control paw [1, 14]: −30%
% variation vs pm-drug threshold [1, 14]: 27%
% variation vs vehicle-treated group [1, 14]: 6%
Nociceptive threshold [1, 14]: 216 ± 12.6 g
% variation vs control paw [1, 15]: −21%
% variation vs pm-drug threshold [1, 15]: 41%
% variation vs vehicle-treated group [1, 15]: 32%
Nociceptive threshold [1, 15]: 270 ± 11.6 g
% variation vs control paw [1, 16]: −23%
% variation vs pm-drug threshold [1, 16]: 44%
% variation vs vehicle-treated group [1, 16]: 28%
Nociceptive threshold [1, 16]: 262 ± 12.5 g
% variation vs control paw [1, 17]: −23%
% variation vs pre-drug threshold [1, 17]: 38%
% variation vs vehicle-treated group [1, 17]: 9%
Nociceptive threshold [1, 17]: 234 ± 15.5 g
% variation vs control paw [1, 18]: −36%
% variation vs pre-drug threshold [1, 18]: 1%
% variation vs vehicle-treated group [1, 18]: −9%
Nociceptive threshold [1, 18]: 194 ± 13.0 g
% variation vs control paw [1, 19]: −27%
% variation vs pre-drug threshold [1, 19]: 16%
% variation vs vehicle-treated group [1, 19]: −1%
Nociceptive threshold [1, 19]: 212 ± 15.8 g
effect on nociceptive (pain) threshold of the affected paw, in words [1, 20]: dose-dependently restores the pain threshold lowered by chronic constriction injury
time at which efficacy was apparent post-dose [1, 20]: 30 min
time for which efficacy remained significant [1, 20]: 2 h
max effect ([1]; whatever the dose): 59%
patient-reported pain control [2]: tolerable and improved at each visit
% antihypersensitivity activity ([3]; 10 mg/kg p.o.): 26%
Colonic distension threshold (mmHg) ([3]; 10 mg/kg p.o.): 30.3 ± 1.3 mmHg
% antihypersensitivity activity ([3]; 30 mg/kg p.o.): 71%
Colonic distension threshold (mmHg) ([3]; 30 mg/kg p.o.): 36.4 ± 1.3 mmHg
untoward effects ([3]; TNBS study, single PO administration): No untoward effects

CN1CC[C@]23c4c5ccc(O)c4O[C@H]2[C@@H](O)C=C[C@H]3[C@H]1C5.Cl [Morphine HCl, reference compound]
Nociceptive threshold ([1]; control paw, TO, 3 mg/kg s.c.): 349 ± 11.1 g
% variation vs control paw [1, 21]: −47%
% variation vs vehicle-treated group [1, 21]: −8%
Nociceptive threshold [1, 21]: 184 ± 11.9 g
% variation vs control paw [1, 22]: −11%
% variation vs pre-drug threshold [1, 22]: 212%
% variation vs vehicle-treated group [1, 22]: 194%
Nociceptive threshold [1, 22]: 576 ± 46.8 g
% variation vs control paw [1, 23]: −6%
% variation vs pre-drug threshold [1, 23]: 212%
% variation vs vehicle-treated group [1, 23]: 159%
Nociceptive threshold [1, 23]: 576 ± 28.8 g
% variation vs control paw [1, 24]: −11%
% variation vs pm-drug threshold [1, 24]: 110%
% variation vs vehicle-treated group [1, 24]: 90%
Nociceptive threshold [1, 24]: 387 ± 40.4 g
% variation vs control paw [1, 25]: −19%
% variation vs pre-drug threshold [1, 25]: 31%
% variation vs vehicle-treated group [1, 25]: 13%
Nociceptive threshold [1, 25]: 242 ± 19.0 g

NCC1(CC(=O)O)CCCCC1 [gabapentin]
anti-hyperalgesic effect, typical range of non-opioid treatments [4]: 40-50%
